Assays:
[1] = system: SH-SY5Y cells; experiment: MTT neuroprotection against MPP+-induced cell damage; format: cell-based
Experimental: Human neuroblastoma SH-SY5Y cells were purchased from the American Type Culture Collection (ATCC, Manassas, Va., USA) and cultured in a humidified 5% (v/v) CO2 atmosphere in 37° C. in Dulbecco's Modified Eagle Medium (DMEM) (Life technologies, NY, USA) supplemented with 10% FBS, 1% penicillin (100 U/mL) and streptomycin (100 μg/mL). All experiments were carried out 48 h after the cells were seeded.
In another study, SH-SY5Y cells were seeded in 96-well plates (1×10^4 cells/well) for 48 h. SH-SY5Y cells were pre-treated with different concentrations of the five lignans for 12 h and the cell viability was checked by MTT assay. SH-SY5Y cells were pre-treated with different concentrations of the five lignans for 12 h and then exposed to 2 mM MPP or vehicle for 36 h. Cells were incubated at 37° C. for 4 h in 0.5 mg/mL MTT solution (prepared in serum free DMEM medium). The medium was then discarded and 100 μL of DMSO was added to each well to dissolve the violet-formazan crystals. The absorbance at 570 nm with 655 nm as a reference wavelength was measured by a multi-label counter (Wallac VICTOR3TMV, Perkin Elmer, Netherlands). Cell viability was expressed as a percentage of the value of the cells without MPP treatment. The LC50 and EC50 were calculated by GraphPad Prism V5.0 (GraphPad Software, Inc., San Diego, Calif.).
To evaluate the cytotoxicity of five selected lignans of S. chinensis, SH-SY5Y cells were treated with various concentrations of the tested compounds for 12 h and the cell viability was measured using the MTT assay. […] To further study the neuroprotective activities of the five lignans in vitro, cells were treated with various concentrations of the tested compounds for 12 h before exposed to MPP^+. […] Values represent mean±S.D. ###P<0.005 versus control group; *p<0.05, **p<0.01 and *** p<0.005 versus MPP group. […] The therapeutic index of SchiA and SC were 14.9 and 8.8, respectively.
The inventors also investigated the contribution of the PI3K/Akt pathway in the neuroprotective effects of SchiA. The inventors measured phosphorylation-Akt (p-Akt) levels after pre-treated with 60 μM SchiA for 12 h and then exposed to 2 mM MPP for another 36 h. […] And MPP^+-induced down-regulation of Akt expressions was inhibited by SchiA treatment. […] To further validate whether the activation of PI3K/Akt signaling pathway, the inventors determined the blocking effect of PI3K/Akt inhibitor such as AKT inhibitor IV on the in vitro neuroprotective effect of SchiA. SH-SY5Y cells were pre-incubated with Akt inhibitor IV (2 μM) for 1 h and then treated with SchiA for 12 h. Drug-treated cells were further treated with 2 mM MPP for another 36 h, MTT assay was used to determinate cell viability.

[2] = system: zebrafish larvae; conditions: 2.5-10 μM with 10 μM MPTP, 4 days, 10 min session
Experimental: The wild type zebrafish was used for this study. Embryos were collected after natural spawning, staged according to standard criteria and raised synchronously at 28.5° C. in embryo medium (13.7 mM NaCl, 540 μM KCl, pH 7.4, 25 μM Na2HPO4, 44 μM KH2PO4, 300 μM CaCl2, 100 μM MgSO4, 420 μM NaHCO3, pH 7.4). Zebrafish were staged by days post fertilization (dpf) according to criteria. […] Drugs (i.e. the five lignans) were dissolved in DMSO and directly added into the zebrafish embryo medium to treat fish. […] An equal concentration of DMSO in embryo medium was used as vehicle control in each experiment.
Then the total distance of movement was defined as the distance (in cm) was recorded using a 96-well plate filled with 200 μL embryo medium in a 10 minutes long session. Zebrafish were allowed to accommodate to the environment of the system for 1 hour before the start of the data acquisition.
In this study, Zebrafish larvae at 3 dpf were exposed to 2.5-10 μM SchiA with or without 10 μM MPTP for another 4 days, and zebrafish larval co-treated with MPTP and 150 μM L-dopa or 3 μM NOM (Nomifensine) were used as positive controls. After treatment, zebrafish were collected to perform locomotion behavior test using Viewpoint Zebrabox system and total distances travelled in 10 min were calculated. […]

[3] = system: intracellular NO in SH-SY5Y cells; experiment: 6-OHDA-induced NO production (DAF-FM diacetate); format: cell-based, Human
Experimental: Intracellular NO was evaluated by using the fluorescent probe 4-amino-5-methylamino-2′,7′-difluorofluoresecin diacetate (DAF-FM diacetate), which is cell-permeant and diffuses passively across cellular membranes. Once inside the cells, DAF-FM diacetate is deacetylated by intracellular esterases to DAF-FM. DAF-FM is essentially non-fluorescent until DAF-FM reacts with NO. Thus, it can be used to quantify intracellular NO production. The cells were seeded in 96-well, black bottom-clear plates. […] The cells were then washed twice in PBS and the fluorescence was evaluated in a multi-label counter at an excitation wavelength of 495 nm and an emission wavelength of 515 nm. The increase in fluorescence for each treatment was calculated as the relative fluorescence of each treatment compared with the untreated control cells.
Augmented NO production subsequent to iNOS induction appears to play an important role in the initial phase of 6-OHDA-induced neuro-damage models in vitro and in vivo (Singh, Das et al. 2005; Lin, Uang et al. 2007; Shih, Chen et al. 2011). […] Expression of the total iNOS proteins were determined by Western blot analysis. […] Results of FIGS. 4A-C are expressed as a percentage of relative fluorescent intensity (RFI) of the Control group. ###P<0.005 versus control group; *p<0.05, **p<0.01 and *** p<0.005 versus 6-OHDA group.

[4] = SchiA pharmacokinetics study in plasma; format: in vivo, Sprague-Dawley rats; conditions: microemulsion 30 mg/kg
Experimental: Male Sprague-Dawley rats (SD rats) with body weight between 220 and 250 g and age between 6 and 7 weeks were supplied by Guangdong Medical Experiment Animal Center (Guangzhou, China). SchiA was prepared as microemulsion for i.v. and p.o. at 30 mg/kg. The concentration of SchiA microemulsion was 4.9 mg/ml. After administration of SchiA, blood samples were collected at 0.033, 0.167, 0.5, 1, 2, 4, 8, 12, 24 and 36 h, respectively. Plasma samples were obtained after centrifugation of the collected blood samples at 10,000 rpm for 5 min. Subsequently, in 100 μl plasma which was taken from the supernatant, 200 μl of 50% acetonitrile and 50% methanol were added. After vortexing for 20 s and centrifuging at 12,000 rpm for 10 min, the supernatant was collected and filtered through a 0.22 μm membrane, of which 20 μl was injected into the chromatographic system for analysis.
Quantitative analysis of SchiA was completed on an Agilent series 1260 HPLC apparatus (Agilent Technologies, Santa Clara, Calif., USA) equipped with a vacuum degasser, a quaternary pump, a manual sampler and an ultraviolet detector. RP Phenonenex C-18 column (250 mm×4.6 mm, 5 μm) was used to separate at 35° C. with a mobile phase of water and methanol (83:17, v/v). The flow rate was 1 ml/min. The monitoring wavelength of SchiA was 230 nm.
And then non-compartmental model of DAS 2.0 program was chosen to calculate the major pharmacokinetic parameters.

COc1cc2c(c(OC)c1OC)-c1c(cc3c(c1OC)OCO3)C[C@H](C)[C@](C)(O)[C@H]2OC(=O)c1ccccc1 [SchiA, Schisantherin A]
EC50 ([1]; pre-treated 12 h, then 2 mM MPP+ 36 h): 8.1 µM | protection against MPP+-induced cell damage (cell viability) ([1]; various concentrations 12 h before MPP+): protect against MPP^+-induced cell damage in a dose-dependent manner | MPTP-induced reduction of total distance of movement [2]: inhibited MPTP-induced reduction of total distance of movement in zebrafish in a dose dependent manner | 6-OHDA-induced increase in DAF-FM fluorescence (NO) ([3]; 60 μM 12 h, then 400 μM 6-OHDA 2 h): inhibited such increase in DAF-FM fluorescence | DAF-FM fluorescence intensity, compound alone ([3]; 60 μM, without 6-OHDA): no effect | t1/2 ([4]; i.v.): 15.88 ± 1.82 h | Tmax ([4]; rat plasma): 1.33 ± 0.58 h | t1/2 ([4]; p.o.): 16.543 ± 6.95 h
